Molecular target: T1, human TLR7 (Homo sapiens, UniProt Q9NYK1)
T1 construct: HA; host or cells: 293XL-hTLR7-HA (HEK293)
T1 sequence (Q9NYK1 27-1049): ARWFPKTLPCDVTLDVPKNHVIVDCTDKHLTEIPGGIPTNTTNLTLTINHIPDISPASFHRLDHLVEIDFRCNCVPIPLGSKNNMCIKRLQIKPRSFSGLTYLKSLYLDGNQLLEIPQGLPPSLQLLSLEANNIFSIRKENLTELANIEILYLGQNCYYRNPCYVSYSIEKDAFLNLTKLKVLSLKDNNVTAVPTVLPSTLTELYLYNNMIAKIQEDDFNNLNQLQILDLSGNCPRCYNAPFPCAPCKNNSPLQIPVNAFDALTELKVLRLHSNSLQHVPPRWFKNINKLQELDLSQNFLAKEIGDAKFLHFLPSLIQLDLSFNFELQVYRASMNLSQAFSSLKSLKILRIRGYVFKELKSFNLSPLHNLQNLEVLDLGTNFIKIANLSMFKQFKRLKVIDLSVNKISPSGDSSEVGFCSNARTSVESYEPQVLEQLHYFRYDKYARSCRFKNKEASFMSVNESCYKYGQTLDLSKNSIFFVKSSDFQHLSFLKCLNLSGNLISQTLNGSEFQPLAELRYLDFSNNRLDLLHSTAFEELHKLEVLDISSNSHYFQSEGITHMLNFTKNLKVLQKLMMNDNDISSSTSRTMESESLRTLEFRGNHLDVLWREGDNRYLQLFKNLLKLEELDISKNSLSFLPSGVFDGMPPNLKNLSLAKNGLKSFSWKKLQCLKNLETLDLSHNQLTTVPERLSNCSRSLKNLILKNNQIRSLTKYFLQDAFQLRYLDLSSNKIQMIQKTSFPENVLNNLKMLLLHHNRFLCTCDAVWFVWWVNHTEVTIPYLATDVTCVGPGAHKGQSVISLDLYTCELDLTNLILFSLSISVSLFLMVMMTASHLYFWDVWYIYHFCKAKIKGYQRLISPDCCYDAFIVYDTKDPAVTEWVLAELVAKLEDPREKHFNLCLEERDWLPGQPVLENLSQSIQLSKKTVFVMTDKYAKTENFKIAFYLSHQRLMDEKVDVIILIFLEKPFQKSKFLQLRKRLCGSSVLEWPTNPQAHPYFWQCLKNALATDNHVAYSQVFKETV
Assay: HEK-TLR7 NF-κB-luciferase reporter, R848 stimulation
Assay type: cell-based
Conditions: averaged NF-κB-Luciferase relative to R848 condition; for TLR7 100 nM: MOE-modified ASO at 100 nM; for TLR7 500 nM: MOE-modified ASO at 500 nM

Sequence | TLR7 100 nM | TLR7 500 nM
CTGTGATCTTGACATGCTGC (antisense; 2'-MOE modified, pattern not given here) [EGFR-2790 MOE] | 0.449 | 0.206
CTTACTTTCCGAGGTGTCCA (antisense; 2'-MOE modified, pattern not given here) [CAMSAP1-1739 MOE] | 0.588 | 0.336
GAACCACGTCTGCTCTAACA (antisense; 2'-MOE modified, pattern not given here) [CAMSAP1-1635 MOE] | 0.597 | 0.291
GAGGTCTTGGCTTCGTGGAG (antisense; 2'-MOE modified, pattern not given here) [MB21D1-523 MOE] | 0.419 | 0.095
GAGTCTCTGGAGCTTCCTCT (antisense; 2'-MOE modified, pattern not given here) [CAMSAP1-2456 MOE] | 0.469 | 0.170
GATGCTCCTCGGTCTCCCTT (antisense; 2'-MOE modified, pattern not given here) [CAMSAP1-1850 MOE] | 0.453 | 0.199
GATGGCCTCCCATCTCCTTC (antisense; 2'-MOE modified, pattern not given here) [HPRT-329 MOE] | 0.678 | 0.336
GCCGCTTTTCTGTCTGGTTC (antisense; 2'-MOE modified, pattern not given here) [CTNN2B-311 MOE] | 0.567 | 0.268
GCGACTATACGCGCAATATG (antisense; 2'-MOE modified, pattern not given here) [NC5 2′MOE] | 0.948 | 0.294
GCGGAGGTCTTGGCTTCGTG (antisense; 2'-MOE modified, pattern not given here) [MB21D1-526 MOE] | 0.453 | 0.154
GCGTATTATAGCCGATTAAC (antisense; 2'-MOE modified, pattern not given here) [NC1 2′MOE] | 0.565 | 0.265
GCGTGTCTGGAAGCTTCCTT (antisense; 2'-MOE modified, pattern not given here) [CTNN2B-809 MOE] | 0.415 | 0.134
GCTTCAGGCGCTGCCTTGCC (antisense; 2'-MOE modified, pattern not given here) [CAMSAP1-2709 MOE] | 0.527 | 0.196
GGAGATTTCAGAGCAGCTTC (antisense; 2'-MOE modified, pattern not given here) [EGFR-4885 MOE] | 0.330 | 0.088
GGAGCTTCGAGGCCCCAGGC (MOE modified, pattern not given here) [MB21D1-616 MOE] | 0.392 | 0.179
GGAGGTCTTGGCTTCGTGGA (antisense; 2'-MOE modified, pattern not given here) [MB21D1-524 MOE] | 0.434 | 0.091
GGCATCCACCACGTCGTCCA (antisense; 2'-MOE modified, pattern not given here) [EGFR-3266 MOE] | 0.216 | 0.097
GGGAAAGGTTATGCAAGGTC (antisense; 2'-MOE modified, pattern not given here) [CTNN2B-916 MOE] | 0.599 | 0.163
GGTCCATACCCAAGGCATCC (antisense; 2'-MOE modified, pattern not given here) [CTNN2B-2446 MOE] | 0.364 | 0.096
GGTGGTCCACAACCCCTTTC (antisense; 2'-MOE modified, pattern not given here) [MB21D1-697 MOE] | 0.620 | 0.097

— patent US20240384268A1, “Oligonucleotides” (Hudson Institute of Medical Research, priority 2021, published 2024)
